Like-named read-outs stand apart in the source and are kept apart here. Where a SMILES comes first, the peptide text is derived from it.
Experiments:
[1] = stability in TRIS buffer pH 7.4; assay type: physicochemical; settings: pH 7.4, Tris buffer pH 7.4, 40 μM, LC-MS/MS, representative of three experiments, read-out: % S38151 remaining
Description: (§1) First, S38151 was incubated for 16 h at 4°C and 37°C in mouse plasma or in TRIS buffer (pH 7.4). Next, plasma proteins were precipitated with two volumes of acetonitrile. After centrifugation and dilution with a water/acetonitrile mixture (50/50 v/v), the supernatant was injected onto a triple quadripole mass spectrometer (Ultima, Micromass WATERS Corporation, Milford, USA). The liquid chromatographic system consisted of an Agilent 1100 analytic pump (Agilent, Santa Clara, USA) equipped with an Alpha Mos CTC autosampler (Alpha Mos, Toulouse, France). Mass detection was performed using the m/z transition 743.5 > 163, in positive electrospray. A second stability study was performed at a lower concentration (1 μM) and for 4 h, with the following sampling times: 0, 15, 45, 90, and 240 min. At each sampling time, 50 μL of plasma were precipitated with two volumes of acetonitrile, and after centrifugation were directly injected onto the LC-MS/MS system. The same treatment was used for the buffer samples.
Figure 2 Studies regarding the stability of S38151. A solution of S38151 (40 μM) was incubated with either Tris buffer, pH 7.4 (hatched bars), or mouse plasma samples (dark bars) for 16 h at 4°C or 37°C. The samples were analyzed using liquid chromatography coupled to mass spectrometry. Experiments were repeated three times. The chart presented is representative of the experimental results. […]

[2] = detection of compound in brain of treated animals; assay type: in vivo; settings: brains from S38151-treated (i.p.-injected) animals, LC-MS/MS, data not shown
Description: as §1
Furthermore, we were unable to detect traces of this pseudopeptide in the brains of i.p.-injected animals. Similarly, its effect could not be correlated with aversion owing to a bad test.

[3] = system: Zucker fa/fa rats; settings: cyclophosphamide 100 mg/kg i.p., S38151 20 nmol/kg (28 μg/kg) i.c.v., n = 8
Description: These experiments were performed with modifications to previously described methods (Madden et al., [1999]). Rats were individually housed in wire-bottomed plastic cages with free access to both food pellets (6 mm diameter A03 UAR) and kaolin powder. The food pellets were presented in a small porcelain bowl on the floor of the cage. The kaolin powder was presented in a metal feeding dish attached to the inside of the cage. After a 2-week habituation period to these conditions, the animals were randomized into five treatment groups based on the quantity of food eaten during the stabilization period. In addition, those rats that consistently spilled the kaolin powder were eliminated from the study. One day after randomization, the animals were injected just before the beginning of the dark phase with either cyclophosphamide (100 mg/kg, i.p.), or S38151 [20 nmol/kg (28 μg/kg) i.c.v.] or vehicle [(artificial CSF) i.c.v.]. After injection, the quantity of kaolin and food ingested during the following 24-h period was determined. Food or kaolin spilled by the animals was collected at the end of the experiment, and total food and kaolin intake measurements were corrected for this loss.
Figure 5 The effects of S38151 on conditioned taste aversion and pica in Zucker fa/fa rats. (A) In the conditioned taste aversion test, after a period of habituation of the animals to the experimental protocol, Zucker fa/fa rats were presented with 0.2% saccharine for 20 min after drinking water was removed from their cages for 18 h (test day 0). Animals were then injected (i.p.) with vehicle or lithium chloride, or with S38151 (20 nmol/kg, i.c.v). On test days 4, 7, 11, and 14, rats were presented with 0.2% saccharine, and the quantity consumed during a 20-min period was determined. Results are expressed as mean ± SEM (n = 10–11 rats per group). […] (B) In the pica test, Zucker fa/fa rats were injected (i.c.v.) with 20 nmol/kg S38151, or an equivalent volume of artificial cerebrospinal fluid vehicle. Food and kaolin intake during the following 24-h period were each measured. Results are expressed as mean ± SEM (n = 8 rats per group).

## CSCC[C@@H]1NC(=O)[C@@H](NC(=O)c2ccc(NC(=N)N)cc2)CSSC[C@@H](C(=O)N[C@@H](Cc2c[nH]c3ccccc23)C(=O)O)NC(=O)[C@@H]2CCCN2C(=O)[C@H](CCCNC(=N)N)NC(=O)[C@H](Cc2ccc(O)cc2)NC(=O)[C@H](C(C)C)NC(=O)[C@H](CCCNC(=N)N)NC(=O)[C@H](CC(C)C)NC1=O [S38151, p-guanidinobenzoyl-(Des-Gly10)-MCH (7–17)] (HELM PEPTIDE1{[N=C(N)Nc1ccc(C(=O)[*:2])cc1].C.M.L.R.V.Y.R.P.C.W}$PEPTIDE1,PEPTIDE1,2:R3-10:R3$$$V2.0; C-terminus assumed)
[1]; 4°C
  remaining at 16 h, 40 μM: 79%
[1]; 37°C
  remaining at 16 h, 40 μM: 32%
[2]
  amount of compound detectable in the brain: none was detected
[3]; vehicle 0.05 ± 0.01 g
  kaolin intake, 24 h, pica test: did not significantly alter
[3]; vehicle 27 ± 1 g
  food intake, 24 h, pica test: significantly reduced

Reference: paper PMC3527734, “Peripheral injections of melanin-concentrating hormone receptor 1 antagonist S38151 decrease food intake and body weight in rodent obesity models” (Frontiers in Endocrinology, 2012)
